# Laboratory results published in patent US7608246B2 (The Brigham and Women's Hospital, Inc., priority 2005, dated 2009).
# Tests used:
# TT-reactive clone = type: cell-based
# αGC reactive T cells = experiment: ApoE enhancement of GGC reactivity: DC pulsed, co-cultured with αGC reactive T cells, IFNγ ELISA; type: cell-based, human; details: for increase of antigenic potency of GGC: compared to freshly sonicated free GGC or GGC with HDL, LDL or albumin
# Experimental: Sonicated GGC was incubated with the indicated components in serum-free media with 4 mg/ml bovine serum albumin (BSA) as a carrier for 1-2 hours (or freshly sonicated) before pulsing DC and co-culturing with αGC reactive T cells in media supplemented with 2% human serum. IFNγ was measured in 16-24 hours by ELISA.
# C) Dose-dependence of apoE.
# CD1d-reactive T cells = experiment: T cell reactivity to GGC in apoE-depleted human serum; type: cell-based; details: compared to normal human serum
# From the text: Data are means of triplicate samples +/−SEM and are representative of four independent experiments using two separate apoE depletion columns and varying doses of antigen. Statistics reflect all doses in all experiments: *p<0.001, **p<0.001, ***p<0.01.
# [1] = system: CD1b-restricted T cell line LDN5; experiment: CD1b restricted T cell response to mycobacterial lipid antigens with or without apoE; type: cell-based; details: versus without apoE
# From the text: D) Enhancement of a CD1b dependent T cell response against foreign antigens.
# DC = experiment: Rapidity of lipid antigen uptake: DC pulsed for varying times, then T cell stimulation; type: cell-based, human; details: free lipid in media alone
# Experimental: A) ApoE enhances the efficiency of presentation of GGC. […] GGC (solid squares and striped bars) or sonicated free GGC (open triangles and open bars) was incubated with DC in serum-free media with 4 mg/ml BSA for the indicated times before washing and testing the ability to stimulate T cells as described in FIGS. 1 and 2. Upper panel: Dose response curve of GGC for 2 minute pulse. Lower panel: Various pulse times are shown for 50 ng/ml GGC.
# To determine the rapidity and efficiency of lipid uptake into DC, free lipid antigen or apoE-bound lipid antigen was used to pulse DC for varying times before washing the cells and assaying their subsequent ability to present antigen to T cells.
# αGC-reactive NKT cells [2] = experiment: Response to intravenous GGC in apoE-deficient mice (intracellular IFNγ of CD1d tetramer positive cells); type: in vivo; details: 200 ng GGC or 1.5 μg anti-CD3
# From the text: Spleens and livers were harvested and TcRβ-positive, CD19-negative, CD1d tetramer positive cells analyzed for intracellular IFNγ production by flow cytometry.
# This was not due to a nonspecific deficit of T cell reactivity, since intravenous administration of anti-CD3 antibodies activated αGC reactive T cells similarly in both apoE-deficient mice and controls. Thus, apoE plays a crucial role in the in vivo presentation of an exogenous lipid antigen.
# apoE = apoE (Homo sapiens, UniProt P02649); experiment: ApoE-GGC binding, heparin affinity column
# Chain of apoE (P02649 19-317): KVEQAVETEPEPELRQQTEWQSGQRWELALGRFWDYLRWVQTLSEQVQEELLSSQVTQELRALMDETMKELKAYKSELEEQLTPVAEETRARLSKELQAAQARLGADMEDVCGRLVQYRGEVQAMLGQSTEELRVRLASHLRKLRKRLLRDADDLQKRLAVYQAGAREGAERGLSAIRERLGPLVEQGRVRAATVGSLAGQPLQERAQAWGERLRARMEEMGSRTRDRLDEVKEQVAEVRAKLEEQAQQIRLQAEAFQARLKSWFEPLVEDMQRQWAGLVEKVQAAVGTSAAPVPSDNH
# Experimental: A) ApoE-GGC binding. […] Fractions were assayed for antigenic activity as in FIG. 1. There was no difference in non-specific loss to the column. Data are representative of at least six separate experiments.
# αGC-reactive NKT cells [3] = experiment: Response to intravenous GGC in LDL-R deficient mice; type: in vivo; details: 200 ng GGC or 1.5 μg anti-CD3
# Experimental: D) LDLR−/− and matched wild type controls were challenged intravenously with 200 ng GGC, 1.5 μg anti-CD3 or vehicle as described in FIG. 1D. Shown are results from spleen, with similar results in the liver. Represents two separate experiments with 10 LDLR−/− and 10 wild type mice.
# Finally, the response to GGC in LDL-R deficient mice was examined. […] Thus, it was concluded that the LDL-R plays a major role in the uptake of apoE-lipid antigen complexes and presentation by CD1.
# LDL-R = experiment: ApoB competition at the LDL-R: DC pulsed with free GGC or apoE-GGC, activation of αGC reactive T cells; type: cell-based, human; details: increasing amounts of apoB
# Experimental: C) Free GGC or apoE-GGC was pulsed onto DC in the presence of increasing concentrations of apoB, and the subsequent activation of αGC reactive T cells was measured. There was no effect of apoB on PHA-stimulation of T cells. All data are representative of at least three experiments.
# In a second approach, advantage was taken of the fact that apoB, the primary component of LDL, also binds to the LDL-R and can serve as a competitive ligand, while not binding LRP (Beisiegel et al., Nature 341:162-4 (1989)). […] As controls, increasing amounts of apoB had no effect on the dose response to free GGC (FIG. 3C) or on the PHA induced T cell response.
# CD1c = CD1c presented antigen T cell stimulation with or without apoE; type: cell-based; details: versus without apoE
substance,measurement,setting,value
apolipoprotein E [apoE],effect on MHC class II restricted response to tetanus toxoid,TT-reactive clone,no effect
same,"effect on control T cell stimulators (CD3, PHA or PMA/ionomycin)",αGC reactive T cells; increasing the concentration of apoE,no effect
same,capacity of serum incubated with GGC to stimulate T cells,CD1d-reactive T cells,recovered
mycolic acid,CD1b restricted T cell activation when complexed with apoE,[1],more efficient
Glucose monomycolate,CD1b restricted T cell activation when complexed with apoE,[1],more efficient
recombinant apoE: recombinant apoE,increase of antigenic potency of GGC,αGC reactive T cells,~50 fold
galactosyl(α1-2)galactosyl ceramide [GGC],time required to achieve maximal stimulation,DC,4 to 6 h
same,maximal stimulation relative to that achieved in 2 minutes with apoE,DC; 4-6 hours,48% (+/−11%)
same,response in apoE-deficient mice versus wild type controls,αGC-reactive NKT cells [2],drastically reduced
same,binding of GGC to apoE,apoE; 10 minute incubation at room temperature,all detectable lipid antigen remained bound to apoE
same,GGC bound to apoE,apoE; in the presence of a 500-fold excess of albumin,greater than 95%
same,response in LDL-R knockouts versus wild type controls,αGC-reactive NKT cells [3],greatly diminished response
apolipoprotein B [apoB],effect on antigen presentation by DC pulsed with apoE-GGC,LDL-R,dose-dependent diminution
same,effect on dose response to free GGC or PHA induced T cell response,LDL-R,no effect
manosyl-phosphomycoketide,T cell stimulation by CD1c presented antigen complexed with apoE,CD1c,significantly more efficient
VLDL-derived apoE: apoE derived from VLDL,increase of antigenic potency of GGC,αGC reactive T cells,~50 fold
